Measured values taken from article PMC6015222, “Targeting Phosphopeptide Recognition by the Human BRCA1 Tandem BRCT Domain to Interrupt BRCA1-Dependent Signaling” (Cell Chemical Biology, 2018).

Target: T1, BRCA1 tBRCT / BACH1 unimolecular FRET biosensor (Homo sapiens, UniProt P38398)
T1 construct: the BRCA1 tBRCT domain (aa 1643-1862); expressed in transfected cells
Experiment: Unimolecular FRET biosensor assay in HEK293 cells (sensitized emission, acceptor photobleaching)
Type: cell-based
Conditions: 100 μM, 24 hr, 16 Gy
Procedure: HEK293 cells expressing the stably integrated FRET sensor in a tetracycline-inducible system were used. 3.5x10^5 cells/35mm dish were seeded in Matrigel coated plates and expression was induced using doxycycline (1μg/ml) for 48 h. Cells were incubated with compounds for 24 h in serum containing media at 100μM final concentration with 0.5% DMSO. Where indicated, mCherry-BRCA1 tBRCT constructs were transiently transfected in a 4.5:1 ratio of Fugene:DNA and incubated in serum-containing media for 24 h (Fugene HD transfection reagent, Promega). Two h after 16 Gy IR, cells were washed in 1x PBS (pH 7.4) and fixed in 4% PFA at room temperature (RT) for 10’. Cells were mounted with Mowiol (without anti-fade) before imaging. The following excitation and emission wavelengths were used: Ex 402nm / Em 457nm for Tag-BFP; Ex 483nm / Em 506nm for Tag-GFP2 and Ex 594nm / Em 610nm for mCherry. […] Images acquired as noted below were quantified using HCS studio 2.0 (Thermo Fisher Scientific) to define nuclear morphology and average nuclear intensities.
For sensitized emission FRET measurements, images were acquired using a Zeiss epifluorescence microscope with Apotome using a 40x oil objective. […] Corrections for the extent of spectral cross-talk were calculated and applied as follows ([Müller et al., 2013]). […]

T1 sequence (P38398 1643-1862): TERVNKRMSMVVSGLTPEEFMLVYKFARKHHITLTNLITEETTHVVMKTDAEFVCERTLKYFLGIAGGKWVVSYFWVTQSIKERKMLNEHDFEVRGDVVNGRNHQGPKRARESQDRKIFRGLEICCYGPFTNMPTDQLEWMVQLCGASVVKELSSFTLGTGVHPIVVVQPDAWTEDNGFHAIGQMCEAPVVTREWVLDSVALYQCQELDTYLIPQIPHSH

How did the “effect on FRET efficiency of the biosensor” value turn out when `O=C(c1ccc2nc(-c3ccccc3)[nH]c2c1)N1CCN(Cc2ccccc2F)CC1` [Bractoppin, (4-(2-fluorobenzyl)piperazin-1-yl) (2-phenyl-1H-benzo[d]imidazol-6-yl) methanone] was run?
The value was “inhibits FRET”.
